Consider 6 cell lines from the supplement of paper PMC10307832.

Holding throughout (test): relative viability (nuclei count vs DMSO), 5 days (fraction); higher = more cells survive
Compound in the assay “Linsitinib + Bortezomib”: C[C@]1(O)C[C@@H](c2nc(-c3ccc4ccc(-c5ccccc5)nc4c3)c3c(N)nccn32)C1 [Linsitinib] + CC(C)C[C@H](NC(=O)[C@H](Cc1ccccc1)NC(=O)c1cnccn1)B(O)O [Bortezomib] (partner 0.002 µM)
An outline of the steps:
(§1)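 For relative viability, nuclei counts in treated wells were divided by those in vehicle wells. Lung cancer cell lines had been pin-tool dosed in 1536-well plates the day after seeding and cultured for 5 days, then fixed and stained in one step (final 0.05% Triton X-100, 1% formaldehyde, 1 ug/ml Hoechst) and imaged at 4×. Doses were one drug alone or a fixed anchor-drug dose plus five library-drug doses (not always all listed) in √10 steps, and values are duplicate-plate medians.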

Compound in the assay “Linsitinib + Navitoclax”: C[C@]1(O)C[C@@H](c2nc(-c3ccc4ccc(-c5ccccc5)nc4c3)c3c(N)nccn32)C1 [Linsitinib] + CC1(C)CCC(c2ccc(Cl)cc2)=C(CN2CCN(c3ccc(C(=O)NS(=O)(=O)c4ccc(N[C@H](CCN5CCOCC5)CSc5ccccc5)c(S(=O)(=O)C(F)(F)F)c4)cc3)CC2)C1 [Navitoclax] (partner 0.5 µM)
An outline of the steps:
as §1

Compound in the assay “Linsitinib + Tozasertib”: C[C@]1(O)C[C@@H](c2nc(-c3ccc4ccc(-c5ccccc5)nc4c3)c3c(N)nccn32)C1 [Linsitinib] + Cc1cc(Nc2cc(N3CCN(C)CC3)nc(Sc3ccc(NC(=O)C4CC4)cc3)n2)n[nH]1 [Tozasertib] (partner 0.1 µM)
An outline of the steps: as §1

Compound in the assay “Ispinesib + Linsitinib”: Cc1ccc(C(=O)N(CCCN)[C@@H](c2nc3cc(Cl)ccc3c(=O)n2Cc2ccccc2)C(C)C)cc1 [Ispinesib] + C[C@]1(O)C[C@@H](c2nc(-c3ccc4ccc(-c5ccccc5)nc4c3)c3c(N)nccn32)C1 [Linsitinib] (partner 1 µM)
An outline of the steps: as §1

For the cell line NCI-H3122, the relative viability in the assay with Linsitinib + Bortezomib (first compound 0.01 µM) is 0.994; with Linsitinib + Bortezomib (first compound 0.03162 µM), 1.05; with Linsitinib + Bortezomib (first compound 0.1 µM) it was 1.04; with Linsitinib + Bortezomib (first compound 0.3162 µM), 0.86; with Linsitinib + Bortezomib (first compound 1 µM) it was 1.03; in the assay with Linsitinib + Navitoclax (first compound 0.01 µM), 1.02. The relative viability with Linsitinib + Navitoclax (first compound 0.03162 µM) was 1.05; with Linsitinib + Navitoclax (first compound 0.1 µM), 1.04; in the assay with Linsitinib + Navitoclax (first compound 0.3162 µM), 1.02; with Linsitinib + Navitoclax (first compound 1 µM), 1.08; with Linsitinib + Tozasertib (first compound 0.01 µM), 0.458; with Linsitinib + Tozasertib (first compound 0.03162 µM), 0.373. Moreover, the relative viability was 0.437 with Linsitinib + Tozasertib (first compound 0.1 µM); 0.425 in the assay with Linsitinib + Tozasertib (first compound 1 µM); 1.07 with Ispinesib + Linsitinib (first compound 0.001 µM); 1.09 with Ispinesib + Linsitinib (first compound 0.003162 µM); 1.07 with Ispinesib + Linsitinib (first compound 0.01 µM); 1.13 in the assay with Ispinesib + Linsitinib (first compound 0.03162 µM). Also, the relative viability with Ispinesib + Linsitinib (first compound 0.1 µM) worked out at 0.251.

With PC-3 [JPC-3], the relative viability stood at 0.745 in the assay with Linsitinib + Bortezomib (first compound 0.01 µM); 0.824 with Linsitinib + Bortezomib (first compound 0.03162 µM); 0.821 in the assay with Linsitinib + Bortezomib (first compound 0.1 µM); 0.637 with Linsitinib + Bortezomib (first compound 0.3162 µM); 0.713 with Linsitinib + Bortezomib (first compound 1 µM); 0.842 in the assay with Linsitinib + Navitoclax (first compound 0.01 µM). The relative viability was determined as 0.798 with Linsitinib + Navitoclax (first compound 0.03162 µM); 0.785 in the assay with Linsitinib + Navitoclax (first compound 0.1 µM); 0.731 in the assay with Linsitinib + Navitoclax (first compound 0.3162 µM); 0.669 with Linsitinib + Navitoclax (first compound 1 µM); 0.87 with Linsitinib + Tozasertib (first compound 0.01 µM); 0.911 in the assay with Linsitinib + Tozasertib (first compound 0.03162 µM). Moreover, the relative viability with Linsitinib + Tozasertib (first compound 0.1 µM) was determined as 0.904; with Linsitinib + Tozasertib (first compound 0.3162 µM) it was 0.777; in the assay with Linsitinib + Tozasertib (first compound 1 µM) it was 0.793; with Ispinesib + Linsitinib (first compound 0.001 µM) it was 0.937; in the assay with Ispinesib + Linsitinib (first compound 0.003162 µM), 0.917; with Ispinesib + Linsitinib (first compound 0.01 µM), 0.949. For the same cell line, the relative viability with Ispinesib + Linsitinib (first compound 0.03162 µM) turned out to be 0.989; with Ispinesib + Linsitinib (first compound 0.1 µM), 1.03.

PC-14: the relative viability with Linsitinib + Bortezomib (first compound 0.01 µM) worked out at 0.792; with Linsitinib + Bortezomib (first compound 0.03162 µM), 0.762; in the assay with Linsitinib + Bortezomib (first compound 0.1 µM), 1.02; with Linsitinib + Bortezomib (first compound 0.3162 µM), 0.923; in the assay with Linsitinib + Bortezomib (first compound 1 µM) it was 0.767; with Linsitinib + Navitoclax (first compound 0.01 µM), 0.968. Also, the relative viability in the assay with Linsitinib + Navitoclax (first compound 0.03162 µM) stood at 1.01; with Linsitinib + Navitoclax (first compound 0.1 µM), 1.03; in the assay with Linsitinib + Navitoclax (first compound 0.3162 µM) it was 0.984; with Linsitinib + Navitoclax (first compound 1 µM) it was 0.944; with Linsitinib + Tozasertib (first compound 0.01 µM) it was 0.559; with Linsitinib + Tozasertib (first compound 0.03162 µM), 0.542. Further, the relative viability stood at 0.578 with Linsitinib + Tozasertib (first compound 0.1 µM); 0.486 with Linsitinib + Tozasertib (first compound 0.3162 µM); 0.427 in the assay with Linsitinib + Tozasertib (first compound 1 µM); 1.08 in the assay with Ispinesib + Linsitinib (first compound 0.001 µM); 1.13 with Ispinesib + Linsitinib (first compound 0.003162 µM); 1.1 in the assay with Ispinesib + Linsitinib (first compound 0.01 µM). The figures for the relative viability in the assay with Ispinesib + Linsitinib (first compound 0.03162 µM) and with Ispinesib + Linsitinib (first compound 0.1 µM) were 0.862 and 0.17, respectively.

For the cell line RERF-LC-KJ, the relative viability with Linsitinib + Bortezomib (first compound 0.01 µM) came to 0.95; in the assay with Linsitinib + Bortezomib (first compound 0.03162 µM) it was 1.03; in the assay with Linsitinib + Bortezomib (first compound 0.1 µM), 1.16; with Linsitinib + Bortezomib (first compound 0.3162 µM) it was 0.892; in the assay with Linsitinib + Bortezomib (first compound 1 µM), 0.927; with Linsitinib + Navitoclax (first compound 0.01 µM) it was 0.862. Also, the relative viability in the assay with Linsitinib + Navitoclax (first compound 0.03162 µM) stood at 0.813; with Linsitinib + Navitoclax (first compound 0.1 µM), 0.581; with Linsitinib + Navitoclax (first compound 0.3162 µM) it was 0.791; with Linsitinib + Navitoclax (first compound 1 µM) it was 0.558; with Linsitinib + Tozasertib (first compound 0.01 µM), 0.508; with Linsitinib + Tozasertib (first compound 0.03162 µM) it was 0.558. The relative viability stood at 0.573 with Linsitinib + Tozasertib (first compound 0.1 µM); 0.523 with Linsitinib + Tozasertib (first compound 0.3162 µM); 0.441 in the assay with Linsitinib + Tozasertib (first compound 1 µM); 1.01 in the assay with Ispinesib + Linsitinib (first compound 0.001 µM); 0.855 in the assay with Ispinesib + Linsitinib (first compound 0.003162 µM); 1.02 with Ispinesib + Linsitinib (first compound 0.01 µM). Also, the relative viability with Ispinesib + Linsitinib (first compound 0.03162 µM) came to 0.819; with Ispinesib + Linsitinib (first compound 0.1 µM), 0.244.

SK-LU-1: the relative viability with Linsitinib + Bortezomib (first compound 0.01 µM) came out at 1.19; with Linsitinib + Bortezomib (first compound 0.03162 µM), 0.659; with Linsitinib + Bortezomib (first compound 0.1 µM), 1.25; with Linsitinib + Bortezomib (first compound 0.3162 µM) it was 0.492; with Linsitinib + Bortezomib (first compound 1 µM), 0.561; with Linsitinib + Navitoclax (first compound 0.01 µM), 0.903. Besides, the relative viability is 0.777 with Linsitinib + Navitoclax (first compound 0.03162 µM); 0.793 with Linsitinib + Navitoclax (first compound 0.1 µM); 0.774 with Linsitinib + Navitoclax (first compound 1 µM); 0.357 in the assay with Linsitinib + Tozasertib (first compound 0.01 µM); 0.383 with Linsitinib + Tozasertib (first compound 0.1 µM); 0.203 with Linsitinib + Tozasertib (first compound 0.3162 µM). The relative viability with Linsitinib + Tozasertib (first compound 1 µM) turned out to be 0.243; with Ispinesib + Linsitinib (first compound 0.001 µM) it was 1.15; with Ispinesib + Linsitinib (first compound 0.003162 µM), 1.32; in the assay with Ispinesib + Linsitinib (first compound 0.01 µM), 1.43; with Ispinesib + Linsitinib (first compound 0.03162 µM), 0.932; in the assay with Ispinesib + Linsitinib (first compound 0.1 µM) it was 0.382.

For the cell line SW 1573, the relative viability with Linsitinib + Bortezomib (first compound 0.01 µM) is 1.18; with Linsitinib + Bortezomib (first compound 0.03162 µM), 1.19; with Linsitinib + Bortezomib (first compound 0.1 µM) it was 1.1; in the assay with Linsitinib + Bortezomib (first compound 0.3162 µM) it was 0.797; with Linsitinib + Bortezomib (first compound 1 µM) it was 0.811; in the assay with Linsitinib + Navitoclax (first compound 0.01 µM), 0.921. For the same cell line, the relative viability was found to be 0.925 with Linsitinib + Navitoclax (first compound 0.03162 µM); 1 with Linsitinib + Navitoclax (first compound 0.1 µM); 0.81 with Linsitinib + Navitoclax (first compound 0.3162 µM); 0.701 with Linsitinib + Navitoclax (first compound 1 µM); 0.213 with Linsitinib + Tozasertib (first compound 0.01 µM); 0.171 with Linsitinib + Tozasertib (first compound 0.03162 µM). Besides, the relative viability with Linsitinib + Tozasertib (first compound 0.1 µM) came to 0.189; with Linsitinib + Tozasertib (first compound 0.3162 µM), 0.186; with Linsitinib + Tozasertib (first compound 1 µM), 0.136; with Ispinesib + Linsitinib (first compound 0.001 µM), 0.934; with Ispinesib + Linsitinib (first compound 0.003162 µM), 0.743; with Ispinesib + Linsitinib (first compound 0.01 µM), 0.983. For the same cell line, the relative viability with Ispinesib + Linsitinib (first compound 0.03162 µM) is 0.801; in the assay with Ispinesib + Linsitinib (first compound 0.1 µM), 0.453.
